The values below come from patent US9675627B2, “Dosing regimens for treating and/or preventing cerebral amyloidoses” (Amicus Therapeutics, Inc., priority 2014, dated 2017).

In the assay the target is T1, O-GlcNAcase (Homo sapiens, UniProt O60502).
T1 construct: host or cells: wild-type fibroblasts AG07059 and SH-SY5Y cells
T1 sequence (O60502 1-916): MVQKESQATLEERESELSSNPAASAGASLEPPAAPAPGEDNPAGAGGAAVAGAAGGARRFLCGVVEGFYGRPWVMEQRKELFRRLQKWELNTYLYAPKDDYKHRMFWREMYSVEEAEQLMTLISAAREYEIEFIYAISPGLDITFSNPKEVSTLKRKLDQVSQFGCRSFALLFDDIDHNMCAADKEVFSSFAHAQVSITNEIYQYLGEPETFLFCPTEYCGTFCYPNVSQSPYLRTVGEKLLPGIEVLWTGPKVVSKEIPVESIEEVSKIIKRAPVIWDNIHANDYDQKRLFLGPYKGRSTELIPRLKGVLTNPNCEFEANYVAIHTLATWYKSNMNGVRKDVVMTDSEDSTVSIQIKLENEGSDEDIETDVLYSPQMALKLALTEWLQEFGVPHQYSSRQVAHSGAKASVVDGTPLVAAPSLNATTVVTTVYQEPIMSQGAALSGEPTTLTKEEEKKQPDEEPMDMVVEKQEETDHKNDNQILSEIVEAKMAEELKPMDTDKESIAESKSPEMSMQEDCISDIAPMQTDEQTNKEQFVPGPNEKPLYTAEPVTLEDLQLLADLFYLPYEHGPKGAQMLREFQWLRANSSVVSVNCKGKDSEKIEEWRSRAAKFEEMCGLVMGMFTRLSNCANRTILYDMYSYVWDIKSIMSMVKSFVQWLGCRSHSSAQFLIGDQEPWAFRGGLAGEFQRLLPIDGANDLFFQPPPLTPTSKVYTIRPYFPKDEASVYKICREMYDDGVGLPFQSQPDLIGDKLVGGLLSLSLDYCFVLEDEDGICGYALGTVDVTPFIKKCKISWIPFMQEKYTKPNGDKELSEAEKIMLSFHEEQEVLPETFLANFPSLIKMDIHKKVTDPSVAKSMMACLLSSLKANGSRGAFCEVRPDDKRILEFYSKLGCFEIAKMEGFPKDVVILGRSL
Description: Cellular O-GlcNAcase activity (protein O-GlcNAc Western blot) in fibroblasts and SH-SY5Y cells. The class given is cell-based. To be noted: concentrations up to 100 μM. Here is the method: Effect of AdDNJ on cellular O-GlcNAcase activity was tested in both wild-type fibroblast (AG07059, Coriell) and SH-SY5Y cells. Fibroblasts were incubated with or without 10 μM AdDNJ or Thiamet G in complete media for 24 h at 37° C. in a humidified 8% CO2 incubator. For SH-SY5Y cells, multiple concentrations (0 μM to 100 μM) of AdDNJ and Thiamet G were used. Cell pellets were lysed in RIPA buffer and total protein-associated O-GlcNAc level was measured using Western blot. Briefly, 40 μg total protein was separated, transferred to PVDF and probed with an anti O-GlcNAc antibody (18B10.C7, Pierce). Chemiluminescence was imaged using an Alpha Innotech FluoroChem Q imager and quantified by densitometry using AlphaView SA software (Alpha Innotech). The blots were stripped and re-probed with an anti-calnexin antibody (ab22595, Abcam). For O-GlcNAc quantification, whole lane O-GlcNAc densitometry was background subtracted and normalized to the calnexin load control band.
Background: A western blot detects proteins with antibodies after separation by electrophoresis.

Regarding `CC(=O)NC1CNC(CO)[C@@H](O)C1O` (stereo partly shown) [AdDNJ, 2-acetamido-1,2-dideoxynojirimycin], the “inhibition of O-GlcNAcase” value is on record as “did not inhibit”.
